Experimental data reported in US6995143B2, “Macrolides with antibacterial activity” (Basilea Pharmaceutica AG, priority 2002, dated 2006).
In brackets after ≈: the same amount, converted by molar mass.

Assays:
Format in all cases: cell-based
[1] = test system: Haemophilus influenzae QK50; assay: MIC, standard agar dilution method using HTM medium
In short: (§1)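 Per NCCLS standard M7-A5 (aerobic growers), activity against Haemophilus influenzae is reported as MIC.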

[2] = test system: Haemophilus influenzae 12214; assay: as above
In short: as §1

[3] = test system: Haemophilus influenzae B1501; assay: as above
In short: as §1

[4] = test system: Haemophilus influenzae QK12/87; assay: as above
In short: as §1

[5] = test system: Streptococcus pneumoniae l/l; assay: MIC, standard microdilution technique
In short: (§2)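 Following NCCLS document M7-A5, compounds are serially diluted in microtiter format against each strain, and the minimal inhibitory concentration is taken as the endpoint.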

[6] = test system: Escherichia coli ATCC 25922; assay: MIC, standard microdilution technique
In short: as §2

[7] = test system: Staphylococcus aureus ATCC 29213; assay: MIC, standard microdilution technique
In short: as §2

[8] = test system: Streptococcus pneumoniae ¼; assay: MIC, standard microdilution technique
In short: as §2

[9] = test system: Staphylococcus aureus 745; assay: MIC, standard microdilution technique
In short: as §2

[10] = test system: Staphylococcus aureus 1086; assay: MIC, standard microdilution technique
In short: as §2

[11] = test system: Streptococcus pneumoniae 12288; assay: MIC, standard microdilution technique
In short: as §2

[12] = test system: Streptococcus pneumoniae SL199T; assay: MIC, standard microdilution technique
In short: as §2

Compound	minimum inhibitory concentration (MIC), Strain L [1]	minimum inhibitory concentration (MIC), Strain K [2]	minimum inhibitory concentration (MIC), Strain M [3]	minimum inhibitory concentration (MIC), Strain I [4]	minimum inhibitory concentration (MIC), Strain E [5]	minimum inhibitory concentration (MIC), Strain D [6]	minimum inhibitory concentration (MIC), Strain A [7]	minimum inhibitory concentration (MIC), Strain F [8]	minimum inhibitory concentration (MIC), Strain C [9]	minimum inhibitory concentration (MIC), Strain B [10]	minimum inhibitory concentration (MIC), Strain H [11]	minimum inhibitory concentration (MIC), Strain G [12]
CC[C@H]1OC(=O)[C@H](C)C(=O)[C@H](C)[C@@H](O[C@@H]2O[C@H](C)C[C@H](N(C)C)[C@H]2O)[C@](C)(OC)C[C@@H](C)C(=O)[C@H](C)[C@H]2[C@@H](SCC(=O)Nc3cc(C)on3)C(=O)O[C@@]21C [Example 33]	8 µg/mL (≈ 10.2 µM)	8 µg/mL (≈ 10.2 µM)	8 µg/mL (≈ 10.2 µM)	16 µg/mL (≈ 20.5 µM)	<=0.06 μg/ml	>32 µg/mL	0.5 µg/mL (≈ 0.639 µM)	>32 µg/mL	>32 µg/mL	0.5 µg/mL (≈ 0.639 µM)	>32 µg/mL	32 µg/mL (≈ 40.9 µM)
CC[C@H]1OC(=O)[C@H](C)C(=O)[C@H](C)[C@@H](O[C@@H]2O[C@H](C)C[C@H](N(C)C)[C@H]2O)[C@](C)(OC)C[C@@H](C)C(=O)[C@H](C)[C@H]2[C@@H](SCC(=O)NCc3nc4ccccc4s3)C(=O)O[C@@]21C [Example 34]	>32 µg/mL	>32 µg/mL	32 µg/mL (≈ 37.7 µM)	32 µg/mL (≈ 37.7 µM)	<=0.06 μg/ml	>32 µg/mL	0.25 µg/mL (≈ 0.295 µM)	8 µg/mL (≈ 9.43 µM)	>32 µg/mL	0.5 µg/mL (≈ 0.59 µM)	>32 µg/mL	>32 µg/mL
CC[C@H]1OC(=O)[C@H](C)C(=O)[C@H](C)[C@@H](O[C@@H]2O[C@H](C)C[C@H](N(C)C)[C@H]2O)[C@](C)(OC)C[C@@H](C)C(=O)[C@H](C)[C@H]2[C@@H](SCC(=O)NCc3ncc[nH]3)C(=O)O[C@@]21C [Example 35]	16 µg/mL (≈ 20.5 µM)	32 µg/mL (≈ 41 µM)	16 µg/mL (≈ 20.5 µM)	16 µg/mL (≈ 20.5 µM)	<=0.06 μg/ml	>32 µg/mL	8 µg/mL (≈ 10.2 µM)	>32 µg/mL	>32 µg/mL	8 µg/mL (≈ 10.2 µM)	>32 µg/mL	16 µg/mL (≈ 20.5 µM)
CC[C@H]1OC(=O)[C@H](C)C(=O)[C@H](C)[C@@H](O[C@@H]2O[C@H](C)C[C@H](N(C)C)[C@H]2O)[C@](C)(OC)C[C@@H](C)C(=O)[C@H](C)[C@H]2[C@@H](SCC(=O)Nc3ccc4ccccc4n3)C(=O)O[C@@]21C [Example 37]	8 µg/mL (≈ 9.66 µM)	16 µg/mL (≈ 19.3 µM)	8 µg/mL (≈ 9.66 µM)	8 µg/mL (≈ 9.66 µM)	<=0.06 μg/ml	>32 µg/mL	0.125 µg/mL (≈ 0.151 µM)	4 µg/mL (≈ 4.83 µM)	>32 µg/mL	<=0.06 μg/ml	>32 µg/mL	>32 µg/mL
CC[C@H]1OC(=O)[C@H](C)C(=O)[C@H](C)[C@@H](O[C@@H]2O[C@H](C)C[C@H](N(C)C)[C@H]2O)[C@](C)(OC)C[C@@H](C)C(=O)[C@H](C)[C@H]2[C@@H](SCC(=O)Nc3ccc4ncccc4c3)C(=O)O[C@@]21C [Example 38]	16 µg/mL (≈ 19.3 µM)	16 µg/mL (≈ 19.3 µM)	8 µg/mL (≈ 9.66 µM)	8 µg/mL (≈ 9.66 µM)	<=0.06 μg/ml	>32 µg/mL	<=0.06 μg/ml	4 µg/mL (≈ 4.83 µM)	>32 µg/mL	<=0.06 μg/ml	32 µg/mL (≈ 38.6 µM)	8 µg/mL (≈ 9.66 µM)
CC[C@H]1OC(=O)[C@H](C)C(=O)[C@H](C)[C@@H](O[C@@H]2O[C@H](C)C[C@H](N(C)C)[C@H]2O)[C@](C)(OC)C[C@@H](C)C(=O)[C@H](C)[C@H]2[C@@H](SCC(=O)Nc3cnc4ccccc4c3)C(=O)O[C@@]21C [Example 39]	16 µg/mL (≈ 19.3 µM)	16 µg/mL (≈ 19.3 µM)	8 µg/mL (≈ 9.66 µM)	16 µg/mL (≈ 19.3 µM)	<=0.06 μg/ml	>32 µg/mL	<=0.06 μg/ml	32 µg/mL (≈ 38.6 µM)	>32 µg/mL	<=0.06 μg/ml	32 µg/mL (≈ 38.6 µM)	8 µg/mL (≈ 9.66 µM)
CC[C@H]1OC(=O)[C@H](C)C(=O)[C@H](C)[C@@H](O[C@@H]2O[C@H](C)C[C@H](N(C)C)[C@H]2O)[C@](C)(OC)C[C@@H](C)C(=O)[C@H](C)[C@H]2[C@@H](SCC(=O)Nc3cccc4cnccc34)C(=O)O[C@@]21C [Example 40]	4 µg/mL (≈ 4.83 µM)	4 µg/mL (≈ 4.83 µM)	4 µg/mL (≈ 4.83 µM)	4 µg/mL (≈ 4.83 µM)	<=0.06 μg/ml	>32 µg/mL	0.125 µg/mL (≈ 0.151 µM)	0.125 µg/mL (≈ 0.151 µM)	>32 µg/mL	0.125 µg/mL (≈ 0.151 µM)	4 µg/mL (≈ 4.83 µM)	0.5 µg/mL (≈ 0.604 µM)
CC[C@H]1OC(=O)[C@H](C)C(=O)[C@H](C)[C@@H](O[C@@H]2O[C@H](C)C[C@H](N(C)C)[C@H]2O)[C@](C)(OC)C[C@@H](C)C(=O)[C@H](C)[C@H]2[C@@H](SCCC(=O)Nc3ccc4ncccc4c3)C(=O)O[C@@]21C [Example 41]	16 µg/mL (≈ 19 µM)	8 µg/mL (≈ 9.5 µM)	8 µg/mL (≈ 9.5 µM)	8 µg/mL (≈ 9.5 µM)	<=0.06 μg/ml	>32 µg/mL	<=0.06 μg/ml	16 µg/mL (≈ 19 µM)	>32 µg/mL	<=0.06 μg/ml	>32 µg/mL	8 µg/mL (≈ 9.5 µM)
CC[C@H]1OC(=O)[C@H](C)C(=O)[C@H](C)[C@@H](O[C@@H]2O[C@H](C)C[C@H](N(C)C)[C@H]2O)[C@](C)(OC)C[C@@H](C)C(=O)[C@H](C)[C@H]2[C@@H](S(=O)(=O)CCNC(=O)c3ccc4nonc4c3)C(=O)O[C@@]21C [Example 44]	16 µg/mL (≈ 18.5 µM)	16 µg/mL (≈ 18.5 µM)	8 µg/mL (≈ 9.25 µM)	16 µg/mL (≈ 18.5 µM)	<=0.06 μg/ml	>32 µg/mL	0.5 µg/mL (≈ 0.578 µM)	<=0.06 μg/ml	>32 µg/mL	0.125 µg/mL (≈ 0.145 µM)	>32 µg/mL	16 µg/mL (≈ 18.5 µM)
CC[C@H]1OC(=O)[C@H](C)C(=O)[C@H](C)[C@@H](O[C@@H]2O[C@H](C)C[C@H](N(C)C)[C@H]2O)[C@](C)(OC)C[C@@H](C)C(=O)[C@H](C)[C@H]2[C@@H](SCC(=O)c3ccc(OC)cc3OC)C(=O)O[C@@]21C [Example 45]	8 µg/mL (≈ 9.73 µM)	8 µg/mL (≈ 9.73 µM)	4 µg/mL (≈ 4.87 µM)	8 µg/mL (≈ 9.73 µM)	<=0.06 μg/ml	>32 µg/mL	0.25 µg/mL (≈ 0.304 µM)	0.5 µg/mL (≈ 0.608 µM)	>32 µg/mL	0.25 µg/mL (≈ 0.304 µM)	>32 µg/mL	16 µg/mL (≈ 19.5 µM)
